Data set [1] in a line: Cmax in Wistar rat at 50 mg/kg, po administered as single dose measured after 1 to 24 hrs by reverse-phase HPLC method. The format is ADME, organism-based. More on the design: dose 50 mg/kg, route oral. Conditions: in vivo.
A short description of data set [2]: Tmax in Wistar rat at 50 mg/kg, po administered as single dose measured after 1 to 24 hrs by reverse-phase HPLC method. The format is ADME, organism-based. Conditions: in vivo.
Data set [3] is described as follows: Half life in Wistar rat at 50 mg/kg, po administered as single dose measured after 1 to 24 hrs by reverse-phase HPLC method. Conditions: in vivo.
In data set [4] the target is Plasminogen activator inhibitor 1 (Homo sapiens, UniProt P05121). Description: Inhibition of human PAI-1 assessed as remaining enzyme activity by measuring p-nitroaniline release pre-incubated for 15 mins before 9.8 nM human tPA substrate addition for 15 mins using 24.5 nM enzyme and chromogenic substrate S-2288 by spectrophotometry.
Plasminogen activator inhibitor 1, sequence (P05121 whole entry): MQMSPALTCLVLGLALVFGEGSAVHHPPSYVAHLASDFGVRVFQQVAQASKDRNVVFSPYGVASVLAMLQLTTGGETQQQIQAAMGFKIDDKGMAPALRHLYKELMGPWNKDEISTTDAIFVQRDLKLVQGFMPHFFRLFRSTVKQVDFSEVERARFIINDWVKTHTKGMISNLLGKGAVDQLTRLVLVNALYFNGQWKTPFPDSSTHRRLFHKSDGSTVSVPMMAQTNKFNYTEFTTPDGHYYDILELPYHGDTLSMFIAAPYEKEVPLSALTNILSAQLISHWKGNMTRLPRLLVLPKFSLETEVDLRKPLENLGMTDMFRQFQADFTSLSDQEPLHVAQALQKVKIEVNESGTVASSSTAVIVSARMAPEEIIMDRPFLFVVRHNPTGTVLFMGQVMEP

pIC50: −log10 of the molar value.

`O=C(COCC(=O)N1CCN(C(c2ccccc2)c2ccccc2)CC1)Nc1ccc(Cl)cc1C(=O)O`: the Cmax in data set [1] is 34.2 µM. Further, the Tmax in data set [2] was 2 h. In data set [3], the half-life was 2.5 h. In addition, in data set [4], the pIC50 was 5.10.
In turn, `Cc1ccc(-c2ccc(F)cc2)cc1NC(=O)COCC(=O)Nc1ccc(Cl)cc1C(=O)O` came in with a Cmax in data set [1] of 92.7 µM. Also, the Tmax in data set [2] worked out at 1 h. For the same compound, the half-life in data set [3] is 1.8 h.
The matching figures for `O=C(COCC(=O)Nc1ccc(Cl)cc1C(=O)O)Nc1cccc(C(F)(F)F)c1`: 58.6 µM, 1 h and 0.8 h.
The matching figures for `CC(=O)Nc1ccc(-c2ccc(C)c(NC(=O)COCC(=O)Nc3ccc(Cl)cc3C(=O)O)c2)cc1`: 0.32 µM, 2 h and 1.4 h.
